These are literature values, as cited in patent US10551383B2, “Methods of detecting a polypeptide having anaplastic lymphoma kinase activity in kidney cancer” (Cell Signaling Technology, Inc., priority 2010, dated 2020).

This series has as its system HGF-stimulated Madin-Darby Canine Kidney (MDCK) cells. Particulars: disclosed in U.S. Pub. No. 2008/0300273.

Take `C[C@@H](Oc1cc(-c2cnn(C3CCNCC3)c2)cnc1N)c1c(Cl)ccc(F)c1Cl` [PF-02341066, Crizotinib]: the cell colony scattering result was “able to reduce cell colony scattering”.
